In patent publication US20080085264A1, “METHODS FOR ENHANCING STEM CELL ENGRAFTMENT DURING TRANSPLANTATION” (priority 2003, published 2008):

What was measured:
BoyJ recipient mice = assay: Short-term homing of donor Sca-1+lin- cells to recipient bone marrow; type: in vivo, mouse
Procedure: Control C57BL/6 (CD45.2^+), CD26 inhibitor treated C57BL/6 (CD45.2^+), or CD26^−/− (CD45.2^+) sorted Sca-1^+lin^− or LD donor BM cells were transplanted by tail-vein injection into lethally irradiated (1100 cGy split dose) congenic BoyJ (CD45.1^+) female recipient mice (Haneline L S, et al. Blood. 1999; 94:1-8.) Contribution of Sca^+lin^− donor cells in the context of Sca-1^+lin^− recipient cells was calculated by flow cytometric analysis of cells found in the recipient mouse BM by measuring CD45.1+ and CD45.2^+ on Sca-1^+lin^− LD cells isolated from the recipient mice 24 hours post transplant. […] Comparisons between treatment groups were made using a two-tailed Student's t-test and data was plotted as mean (M)±standard error of the mean (SEM).

C57BL/6 mice = assay: G-CSF induced mobilization of HSC/HPC in C57BL/6 mice (progenitor cell assays of peripheral blood); type: in vivo, mouse; conditions: inhibitor 5 μmol/mouse 2×/day s.c. during G-CSF mobilization, C57BL/6
Procedure: Mobilization was achieved by treating mice with 2.5 μg (micrograms) G-CSF/mouse 2×/day s.c. for 2 days (Broxmeyer H E, et al. J Exp Med. 1999; 189:1987-1992). Mice simultaneously treated with a specific CD26 inhibitor also underwent treatment with either 5 μmol Diprotin A/mouse 2×/day s.c. for 2 days or 5 μmol Val-Pyr/mouse 2×/day s.c. for 2 days. Diprotin A was obtained commercially (Peptides International, Louisville, Ky.) and Val-Pyr was obtained as a gift from Nicolai Wagtmann (Novo Nordisk, Denmark). After either G-CSF or G-CSF plus CD26 inhibitor treatment peripheral blood cells were collected and total cellular nuclearity was measured and progenitor cell assays were performed using total peripheral blood cells.
One-hundred thousand mouse G-CSF mobilized peripheral blood cells were plated in triplicate for colony formation by CFU-GM, BFU-E, and CFU-GEMM and scored at 7 days incubation as previously described (Cooper S, Broxmeyer H E. Measurement of interleukin-3 and other hematopoietic growth factors, such as GM-CSF, G-CSF, M-CSF, erkythropoietin and the potent co-stimulating cytokines steel factor and FLt-3 ligand. In: Coligan J E K A, Margulies D H, Shevach E M, Strober E, Coico R, ed. Current protocols in immunology. New York: John Wiley & Sons; 1996:6.4.1-6.4.12). Cells were plated for colony formation in 1% methylcellulose culture medium containing 30% FBS, 1 U/ml recombinant(r) human Epo, 0.1 mM Hemin, 5% Pokeweed Mitogen Spleen Conditioned Media (PWMSCM), and 50 ng/ml rmouse Steel Factor (=Stem Cell Factor, SCF).

DBA/2 mice = assay: G-CSF induced mobilization of HSC/HPC in DBA/2 mice (progenitor cell assays of peripheral blood); type: in vivo, mouse; conditions: without G-CSF
[1] = test system: Sca-1+lin- mouse BM cells; assay: Chemotaxis assay, CXCL12 induced migration of Sca-1+lin- mouse BM cells; type: cell-based
Procedure: (§1) Chemotaxis assays were performed using 96-well chemotaxis chambers (NeuroProbe, Gaithersburg, Md.) in accordance with manufacturer's instructions as described previously with minor variations (Christopherson K W, 2nd, et al. J Immunol. 2002; 169:7000-7008; Christopherson K W, 2nd, et al. Blood. 2001; 98:3562-3568; Christopherson K, 2nd, et al. Immunol Lett. 1999; 69:269-273). Briefly 300 μl of RPMI supplemented with 10% FBS and either 0, 100, 200, and 400 ng/ml of mouse CXCL12 chemokine was added to the lower chamber. Ten-thousand sorted cells in 50 μL of media were added to the upper side of the membrane (5.7 mm diameter, 5 μm pore size, polycarbonate membrane.)
(§2) Total cell number in the lower well was obtained by counting using hemocytometer after 4 hours of incubation at 37° C., 5% CO2. Percent migration was calculated by dividing the number of the cells in the lower well by the total cell input multiplied by 100 and subtracting random migration (always less than 5%) to the lower chamber without chemokine presence. Three samples were analyzed separately in triplicate, and then the data averaged for statistical analysis.
Inhibition of endogenous CD26/DPPIV activity was accomplished by pretreatment of cells with 5 mM Diprotin A (Peptides International, Louisville, Ky.) for 15 minutes at 37° C. Diprotin A was allowed to remain in the chemotaxis chamber during the assay. […]

[2] = test system: Sca-1+c-kit-lin- mBM cells; assay: Chemotaxis assay, CXCL12 induced migration of sorted Sca-1+c-kit-lin- mBM cells; type: cell-based, mouse; conditions: 5 mM Diprotin A
Procedure: as §1, §2
The N-terminal truncated mouse CXCL12 (CXCL12 (amino acids 3-68)) was produced by treatment of mouse CXCL12 with DPPIV (Enzyme Systems Products, Livermore, Calif.) for 18 hrs at 37° C. in PBS pH 7.4. […]

Ile-Pro-Ile [Diprotin A]
increase in homing efficiency (BoyJ recipient mice; 1×10^4 sorted Sca-1+lin- BM C57Bl/6 donor cells treated 15 minutes prior to transplant, vs untreated cells): 9 fold
short-term homing of donor cells (BoyJ recipient mice; donor LDBM unit treated prior to transplant, P<0.01, n=6): significant increase in short-term homing
reduction in BFU-E compared to G-CSF alone (C57BL/6 mice): 29%
reduction in CFU-GEMM compared to G-CSF alone (C57BL/6 mice): 63%
reduction in CFU-GM compared to G-CSF alone (C57BL/6 mice): 59%
effect on the mobilization of progenitors, inhibitor alone (DBA/2 mice): little or no effect
increase in CXCL12-induced migratory response ([1]; Diprotin A treated Sca-1+lin- BM cells from C57BL/6 mice): two-fold
effect on CXCL12-induced migration of CD26-/- cells ([1]; Diprotin A treatment of CD26-/- Sca-1+lin- cells compared to untreated CD26-/- cells): no further enhancing effect
increase in total cell migration ([2]; 100 ng/ml CXCL12): 2.5 fold
increase in total cell migration ([2]; 200 and 400 ng/ml CXCL12): two-fold
